Experimental data reported in a melting point compilation (Tetko et al.; mined from patent text by program, amines drawn as free bases though some values may be those of a salt).

**Q.** For `O=C(O)CCC(=O)Oc1c(Cc2ccccc2)ccc2ccccc12`, which melting point is on record?
**A.** 140 °C

**Q.** For `O=C1CCc2c(F)cc(Cl)cc21`, which melting point is on record?
**A.** 105 to 107 °C

**Q.** For `N#CC1CN1C(=O)NC(=O)c1ccc(Cl)cc1` (stereo unspecified), which melting point is on record?
**A.** 160 to 162 °C

**Q.** For `COCCOc1nc(Nc2cccc(NS(C)(=O)=O)c2)nc2[nH]cnc12`, which melting point is on record?
**A.** 201 to 204 °C

**Q.** With `CCOc1noc2c1CN(C(=O)OC)CCC2` as the compound, how does the melting point read?
**A.** 51.5 to 52 °C

**Q.** For `CCOC(=O)c1c(-c2ccc(F)cc2)c2ccncc2c(=O)n1C`, which melting point is on record?
**A.** 158 to 160 °C

**Q.** Which melting point does the source give for `CC(C)(C)c1ccc(OP2OCC3(CO2)COP(Oc2ccc(C(C)(C)C)cc2C(C)(C)C)OC3)c(C(C)(C)C)c1` (stereo unspecified) here?
**A.** 174 to 177 °C

**Q.** For `NS(=O)(=O)c1cccc(-c2cc(-c3nc(-c4ccc(F)cc4)cc(C(F)(F)F)n3)ccn2)c1`, which melting point is on record?
**A.** 240 °C

**Q.** Which melting point does the source give for `CCCCNC(=O)C1(c2ccccc2)CCN(C)CC1` here?
**A.** 73 to 76.5 °C

**Q.** With `COC1=CC(=O)[C@H](C(=O)O[C@@H]2C[C@H](C)CC[C@H]2C(C)C)[C@@H](C)C1` as the compound, how does the melting point read?
**A.** 78 to 80 °C

**Q.** With `CCCNCCc1ccc(NS(=O)(=O)c2ccc(OC(F)(F)F)cc2)cc1` as the compound, how does the melting point read?
**A.** 151 to 154 °C

**Q.** For `CN(CCOc1ccc(CC(S)C(=O)O)cc1)c1nc2ccccc2o1` (stereo unspecified), which melting point is on record?
**A.** 154 to 156 °C

**Q.** With `COc1ccc(/C=C(\C#N)c2ccsc2)cc1OC1CCCC1` as the compound, how does the melting point read?
**A.** 83 to 84 °C

**Q.** Which melting point does the source give for `CC1(COc2cccc(Br)c2)COC(C)(C)OC1` here?
**A.** 67 to 70 °C

**Q.** For `O=C(O)c1cc(F)c(O)nc1Nc1ccc(F)cc1`, which melting point is on record?
**A.** 216 to 217 °C

**Q.** Which melting point does the source give for `O=C(c1ccc(F)cc1)c1cccc(C(=O)c2ccc(F)cc2)c1` here?
**A.** 178 °C

**Q.** Which melting point does the source give for `O=C1O[C@@H](Cn2ccnn2)CN1c1ccc(-c2ccc(C3=NOC(CS(=O)(=O)CCc4ccncc4)C3)nc2)c(F)c1` (stereo partly specified) here?
**A.** 195 °C

**Q.** With `C=CC1CCC2C3CC=C4CC(O)CCC4(C)C3CCC12C` (stereo unspecified) as the compound, how does the melting point read?
**A.** 132 to 135 °C

**Q.** Which melting point does the source give for `COC(=O)n1c(=O)n(C(C)C)c2nc(=O)[nH]cc21` here?
**A.** 303 to 306 °C

**Q.** Which melting point does the source give for `O=Cc1c[nH]c2ccc(Nc3ncnc4cc(-c5ccccc5)sc34)cc12` here?
**A.** 174 to 175 °C

**Q.** With `CCCCCCCCCCCCCCCCCCNC(=O)OCC(CO)NC(=O)OC(C)(C)C` (stereo unspecified) as the compound, how does the melting point read?
**A.** 73 to 75 °C

**Q.** For `COC(=O)c1ccc([C@H]2CCN(C(=O)OC(C)(C)C)C[C@@H]2O)cc1` (racemic), which melting point is on record?
**A.** 146 °C

**Q.** With `COCc1c(C(=O)OC)sc2nnsc12` as the compound, how does the melting point read?
**A.** 123 to 124 °C

**Q.** For `c1ccc(CCN2Cc3sccc3C(c3ccccc3)C2)cc1` (stereo unspecified), which melting point is on record?
**A.** 110 °C

**Q.** With `CSC(=NC#N)N(C)N` as the compound, how does the melting point read?
**A.** 69 to 71 °C

**Q.** For `O=C(CCc1ccccc1)CN1C(=O)CC1S(=O)Cc1ccccc1` (stereo unspecified), which melting point is on record?
**A.** 110 to 111 °C

**Q.** Which melting point does the source give for `CN1C(=O)CC[C@]2(C)c3ccc(-c4ccc(O)c(C=O)c4)cc3CC[C@@H]12` here?
**A.** 184 to 187 °C

**Q.** Which melting point does the source give for `COc1cc(N)c2nccc(C)c2c1OCCCCCCCCCc1ccccc1` here?
**A.** 32 to 32.5 °C

**Q.** For `CCc1cc(Br)cc2[nH]c(=O)oc(=O)c12`, which melting point is on record?
**A.** 208 to 210 °C

**Q.** Which melting point does the source give for `O=C(O)Cc1c(-c2ccccc2)c2cc(Cl)c(Cl)cc2oc1=O` here?
**A.** 222 to 223 °C

**Q.** For `O=C(O)CCC(=O)c1ccc(NC(=O)C2(Cl)CC2)cc1`, which melting point is on record?
**A.** 178 to 179 °C

**Q.** With `O=c1[nH]c2scnc2c2c(O)cccc12` as the compound, how does the melting point read?
**A.** > 250 °C

**Q.** Which melting point does the source give for `CCCCCCCCCCOc1ccc(Oc2cccc(C(=O)O)c2)cc1CCC(=O)O` here?
**A.** 102 to 104 °C

**Q.** For `CCN[C@@H]1CN(C(=O)c2nn(C)c3ccccc23)C[C@@H]1C` (relative stereo), which melting point is on record?
**A.** 62 to 64 °C

**Q.** With `COC(=O)c1c(C(C)C)nc(C(C)C)c(CN2CCC(N3CCCCC3)CC2)c1-c1ccc(F)cc1` as the compound, how does the melting point read?
**A.** 59 to 61 °C

**Q.** With `O=[N+]([O-])c1cnn2c1-c1ccccc1NC2C=Cc1ccccc1` (stereo unspecified) as the compound, how does the melting point read?
**A.** 171 to 173 °C

**Q.** With `C=CCc1c(O)cc(C)c(O)c1C` as the compound, how does the melting point read?
**A.** 114 to 116 °C

**Q.** Which melting point does the source give for `CC(C)c1nc(COCc2ccccc2)n(Cc2cnc3ccccc3c2)c1Sc1cc(Cl)cc(Cl)c1` here?
**A.** 95 to 98 °C

**Q.** With `O=S(=O)(Nc1cccnc1Nc1ccccc1)c1ccccc1` as the compound, how does the melting point read?
**A.** 148 to 150 °C

**Q.** For `NC(=O)c1c(Cl)c(-c2ccccc2)n2c1CN(S(=O)(=O)Nc1ccc(C(F)(F)F)cc1)CC2`, which melting point is on record?
**A.** 209 to 211 °C

**Q.** For `CS(=O)(=O)c1cccc(-n2ccc(=O)c(-c3ccnn3-c3ccccc3)n2)c1`, which melting point is on record?
**A.** 199 to 200 °C

**Q.** With `Oc1cccc(C=Cc2ccc3ccccc3n2)c1` as the compound, how does the melting point read?
**A.** 210 to 212 °C

**Q.** With `CS(=O)(=O)c1cc(Cl)c2[nH]cc(CC(N)C(=O)O)c2c1` (stereo unspecified) as the compound, how does the melting point read?
**A.** 292 to 294 °C

**Q.** Which melting point does the source give for `CCOC(=O)Cc1c(C)nn(-c2ccccn2)c1-c1ccccc1` here?
**A.** 89 to 90 °C

**Q.** Which melting point does the source give for `COc1ccc(S(=O)(=O)Nc2cccnc2Nc2ccccc2)cc1` here?
**A.** 172 to 173 °C

**Q.** Which melting point does the source give for `COc1ccc2c(c1CC1CCCC1)CC[N+]([O-])=C2Cc1c(Cl)cncc1Cl` here?
**A.** 176 to 178 °C

**Q.** For `CCc1nnc(CCCOc2c(C)cc(-c3noc(C(F)F)n3)cc2C)s1`, which melting point is on record?
**A.** 83 to 84 °C

**Q.** For `N#Cc1cccc(-c2cnc3[nH]c(=O)n(CC4CCCCC4)c3n2)c1`, which melting point is on record?
**A.** 228 to 230 °C

**Q.** For `CCc1nc(N)nc(N)c1-c1ccc(NCCc2ccccc2)c([N+](=O)[O-])c1`, which melting point is on record?
**A.** 222 to 225 °C

**Q.** Which melting point does the source give for `CC(=O)Nc1c(-c2c(F)cc(F)cc2F)c(Cl)nc2ncnn12` here?
**A.** 108 to 111 °C

**Q.** With `CSc1cc(CBr)cc(S(N)(=O)=O)c1Cc1ccccc1` as the compound, how does the melting point read?
**A.** 149 to 150 °C
